Test results: US9206128B2 (Constellation Pharmaceuticals, Inc., priority 2011, dated 2015)

What was measured:
EZH2 = EZH2 (Homo sapiens, UniProt Q15910); assay: EZH2 activity inhibition assay (rPRC2, 3H SAM, biotinylated oligonucleosomes, FlashPlate); type: biochemical; conditions: rPRC2, 2 nM EZH2, 0.2 μM 3H SAM, top concentration 80 μM
Description: (§1) EZH2 Assay: Assays were carried out by mixing rPRC2 together with biotinylated oligonucleosome substrates in the presence of the radio-labeled enzyme co-factor, S-adenosyl-L-methionine (^3H SAM) (Perkin Elmer) and monitoring the enzymatically mediated transfer of tritiated methyl groups from ^3H SAM to histone lysine residues. The amount of resulting tritiated methyl histone product was measured by first capturing the biotinylated oligonucleosomes in streptavidin (SAV) coated FlashPlates (Perkin Elmer), followed by a wash step to remove un-reacted ^3H SAM, and then counting on a TopCount NXT 384 well plate scintillation counter (Perkin Elmer).
A 12.5 μL volume of the HMT enzyme, H3K27me3 peptide and oligonucleosome substrate in assay buffer was added to each well of the assay plate using a Multidrop Combi (ThermoFisher). Compounds were pre-incubated with the enzyme for 20 min, followed by initiation of the methyltransferase reaction by addition of 12.5 μL of 3H SAM in assay buffer (final volume=25 μL). […] Stopped reactions were transferred to SAV coated Flashplates (Perkin Elmer), incubated for 120 min, washed with a plate washer, and then read on the TopCount NXT (1.0 min/well) to measure the amount of methyl histone product formed during the reaction.

Y641N EZH2 = Y641N EZH2 (Homo sapiens, UniProt Q15910, Y641N); assay: Y641N EZH2 activity inhibition assay (as EZH2 assay, reconstituted H3K27Me2 oligonucleosomes as substrate); type: biochemical; conditions: Y641N EZH2 mutant enzyme
Description: as §1, with “Elmer). The final assay conditions for EZH2 were as follows: 50 mM Tris Buffer pH 8.5, 1 mM DTT, 69 μM Brij-35 detergent, 5.0 mM MgCl2, 0.1 mg/mL BSA, 0.2 μM ^3H SAM, 0.2 μM biotinylated oligonucleosomes, 3.6 μM H3K27me3 peptide and 2 nM EZH2.” for “Elmer).”
A 12.5 μL volume of the HMT enzyme, H3K27me3 peptide and oligonucleosome substrate in assay buffer was added to each well of the assay plate using a Multidrop Combi (ThermoFisher). Compounds were pre-incubated with the enzyme for 20 min, followed by initiation of the methyltransferase reaction by addition of 12.5 μL of 3H SAM in assay buffer (final volume=25 μL). The final concentrations of compounds ranged from a top default concentration of 80 μM down to 0.16 μM in ten 2-fold dilution steps. Reactions were carried out for 60 minutes and quenched with 20 μL per well of 1.96 mM SAH, 50 mM Tris PH 8.5, 200 mM EDTA. Stopped reactions were transferred to SAV coated Flashplates (Perkin Elmer), incubated for 120 min, washed with a plate washer, and then read on the TopCount NXT (1.0 min/well) to measure the amount of methyl histone product formed during the reaction.

Chain of Y641N EZH2 (Q15910 whole entry Y641N): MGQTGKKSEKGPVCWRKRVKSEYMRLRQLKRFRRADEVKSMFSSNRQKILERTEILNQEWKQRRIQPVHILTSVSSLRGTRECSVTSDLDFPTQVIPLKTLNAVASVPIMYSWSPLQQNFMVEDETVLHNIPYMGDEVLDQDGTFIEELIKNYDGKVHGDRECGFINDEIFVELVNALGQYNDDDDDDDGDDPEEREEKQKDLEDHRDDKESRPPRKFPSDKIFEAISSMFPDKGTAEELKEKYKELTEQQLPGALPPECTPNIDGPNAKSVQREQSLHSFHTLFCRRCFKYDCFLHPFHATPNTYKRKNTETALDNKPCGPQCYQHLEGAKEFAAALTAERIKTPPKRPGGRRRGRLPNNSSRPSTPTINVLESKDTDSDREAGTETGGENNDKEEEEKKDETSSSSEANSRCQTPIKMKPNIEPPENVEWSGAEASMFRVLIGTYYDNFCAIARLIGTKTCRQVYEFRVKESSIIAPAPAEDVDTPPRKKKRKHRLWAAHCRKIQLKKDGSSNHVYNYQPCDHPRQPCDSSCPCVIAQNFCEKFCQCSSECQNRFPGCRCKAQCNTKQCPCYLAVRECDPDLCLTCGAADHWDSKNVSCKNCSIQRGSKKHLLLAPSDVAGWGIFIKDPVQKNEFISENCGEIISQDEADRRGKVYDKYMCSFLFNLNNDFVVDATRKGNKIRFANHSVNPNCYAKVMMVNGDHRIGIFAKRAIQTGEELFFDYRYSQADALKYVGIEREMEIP
Chain of Y641N EZH2 (O75530 whole entry partner): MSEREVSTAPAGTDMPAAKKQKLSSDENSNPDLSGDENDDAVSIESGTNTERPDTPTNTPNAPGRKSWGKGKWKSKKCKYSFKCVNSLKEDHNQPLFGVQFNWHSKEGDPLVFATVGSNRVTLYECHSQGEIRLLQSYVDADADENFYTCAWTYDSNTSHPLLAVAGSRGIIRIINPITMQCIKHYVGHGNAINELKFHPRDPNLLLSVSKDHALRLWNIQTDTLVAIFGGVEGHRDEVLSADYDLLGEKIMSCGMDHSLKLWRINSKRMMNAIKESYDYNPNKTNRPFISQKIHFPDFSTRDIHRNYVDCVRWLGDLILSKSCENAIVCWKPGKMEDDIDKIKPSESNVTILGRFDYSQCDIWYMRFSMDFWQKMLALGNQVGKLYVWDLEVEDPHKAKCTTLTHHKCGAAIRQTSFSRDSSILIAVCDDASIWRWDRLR
Chain of Y641N EZH2 (Q15022 whole entry partner): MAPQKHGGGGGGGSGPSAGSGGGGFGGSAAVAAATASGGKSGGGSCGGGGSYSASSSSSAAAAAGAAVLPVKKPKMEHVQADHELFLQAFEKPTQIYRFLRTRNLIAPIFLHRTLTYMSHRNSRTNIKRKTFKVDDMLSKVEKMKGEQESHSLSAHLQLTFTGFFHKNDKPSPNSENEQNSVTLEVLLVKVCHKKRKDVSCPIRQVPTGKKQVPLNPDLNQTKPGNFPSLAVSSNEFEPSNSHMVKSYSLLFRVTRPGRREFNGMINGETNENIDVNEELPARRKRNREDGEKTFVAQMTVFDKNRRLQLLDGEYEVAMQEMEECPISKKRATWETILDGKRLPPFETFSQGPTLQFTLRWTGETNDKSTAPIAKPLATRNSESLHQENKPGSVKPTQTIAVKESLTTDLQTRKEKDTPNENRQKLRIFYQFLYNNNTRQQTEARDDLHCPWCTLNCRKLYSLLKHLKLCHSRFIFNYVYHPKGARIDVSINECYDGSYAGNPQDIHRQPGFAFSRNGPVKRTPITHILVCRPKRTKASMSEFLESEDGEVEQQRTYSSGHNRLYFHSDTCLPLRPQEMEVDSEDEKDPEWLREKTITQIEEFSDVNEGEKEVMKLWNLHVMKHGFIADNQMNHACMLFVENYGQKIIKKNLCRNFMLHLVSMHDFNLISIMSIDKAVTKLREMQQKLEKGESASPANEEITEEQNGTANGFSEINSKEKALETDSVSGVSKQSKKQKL
Chain of EZH2 (Q15910 whole entry): as the sequence (Q15910 whole entry Y641N) above, with N641Y counted along it
Chain of EZH2 (O75530 whole entry partner): as the sequence (O75530 whole entry partner) above
Chain of EZH2 (Q15022 whole entry partner): as the sequence (Q15022 whole entry partner) above

Compound	IC50 (EZH2)	IC50 (Y641N EZH2)
COc1cc(Oc2ccccc2)ccc1C(=O)NCc1c(C)cc(C)[nH]c1=O [Compound I-32, N-((2-hydroxy-4,6-dimethylpyridin-3-yl)methyl)-2-methoxy-4-phenoxybenzamide]	< 1 µM	1 to 10 µM
Cc1cc(C)c(CNC(=O)c2ccc(Cc3ccccc3)cc2)c(=O)[nH]1 [Compound I-34, 4-benzyl-N-((2-hydroxy-4,6-dimethylpyridin-3-yl)methyl)benzamide]	< 1 µM	1 to 10 µM
Cc1ccc(OC(C)c2ccc(C(=O)NCc3c(C)cc(C)[nH]c3=O)cc2)cc1 (stereo not drawn) [Compound I-35, N-((2-hydroxy-4,6-dimethylpyridin-3-yl)methyl)-4-(1-(p-tolyloxy)ethyl)benzamide]	< 1 µM	1 to 10 µM
Cc1cc(C)c(CNC(=O)c2ccc(CN(C)c3ccccc3)cc2)c(=O)[nH]1 [Compound I-36, N-((2-hydroxy-4,6-dimethylpyridin-3-yl)methyl)-4-((methyl(phenyl)amino)methyl)benzamide]	10 to 50 µM	> 80 µM
Cc1cc(C)c(CNC(=O)c2ccc(Oc3ccccc3)c(C)c2)c(=O)[nH]1 [Compound I-37, N-((2-hydroxy-4,6-dimethylpyridin-3-yl)methyl)-3-methyl-4-phenoxybenzamide]	1 to 10 µM	1 to 10 µM
Cc1cc(C)c(CNC(=O)c2ccc(C(C)Oc3ccccc3C)cc2)c(=O)[nH]1 (stereo not drawn) [Compound I-38, N-((2-hydroxy-4,6-dimethylpyridin-3-yl)methyl)-4-(1-(o-tolyloxy)ethyl)benzamide]	< 1 µM	1 to 10 µM
Cc1cccc(OC(C)c2ccc(C(=O)NCc3c(C)cc(C)[nH]c3=O)cc2)c1 (stereo not drawn) [Compound I-39, N-((2-hydroxy-4,6-dimethylpyridin-3-yl)methyl)-4-(1-(m-tolyloxy)ethyl)benzamide]	< 1 µM	< 1 µM
Cc1cc(C)c(CNC(=O)c2ccc(CNc3ccccc3)cc2)c(=O)[nH]1 [Compound I-40, N-((2-hydroxy-4,6-dimethylpyridin-3-yl)methyl)-4-((phenylamino)methyl)benzamide]	1 to 10 µM	10 to 50 µM
Cc1cc(C)c(CNC(=O)c2ccc(C(C)Oc3ccccc3F)cc2)c(=O)[nH]1 (stereo not drawn) [Compound I-41, 4-(1-(2-fluorophenoxy)ethyl)-N-((2-hydroxy-4,6-dimethylpyridin-3-yl)methyl)benzamide]	< 1 µM	< 1 µM
Cc1cc(C)c(CNC(=O)c2ccc(C(C)Oc3cccc(F)c3)cc2)c(=O)[nH]1 (stereo not drawn) [Compound I-42, 4-(1-(3-fluorophenoxy)ethyl)-N-((2-hydroxy-4,6-dimethylpyridin-3-yl)methyl)benzamide]	< 1 µM	< 1 µM
Cc1cc(C)c(CNC(=O)c2ccc(C(Oc3ccccc3)C(C)C)cc2)c(=O)[nH]1 (stereo not drawn) [Compound I-43, N-((2-hydroxy-4,6-dimethylpyridin-3-yl)methyl)-4-(2-methyl-1-phenoxypropyl)benzamide]	10 to 50 µM	> 50 µM
CCC(Oc1ccccc1)c1ccc(C(=O)NCc2c(C)cc(C)[nH]c2=O)cc1 (stereo not drawn) [Compound I-44, N-((2-hydroxy-4,6-dimethylpyridin-3-yl)methyl)-4-(1-phenoxypropyl)benzamide]	< 1 µM	< 1 µM
Cc1cc(C)c(CNC(=O)c2ccc3c(c2)CCC3Oc2ccccc2)c(=O)[nH]1 (stereo not drawn) [Compound I-45, N-((2-hydroxy-4,6-dimethylpyridin-3-yl)methyl)-1-phenoxy-2,3-dihydro-1H-indene-5-carboxamide]	> 50 µM	> 80 µM
Cc1cc(C)c(CNC(=O)c2ccc(C(C)Oc3ccc(F)cc3)cc2)c(=O)[nH]1 (stereo not drawn) [Compound I-46, 4-(1-(4-fluorophenoxy)ethyl)-N-((2-hydroxy-4,6-dimethylpyridin-3-yl)methyl)benzamide]	< 1 µM	< 1 µM
Cc1cc(C(F)(F)F)[nH]c(=O)c1CNC(=O)c1ccc(Oc2ccccc2)cc1 [Compound I-47, N-((2-hydroxy-4-methyl-6-(trifluoromethyl)pyridin-3-yl)methyl)-4-phenoxybenzamide]	> 50 µM	10 to 50 µM
Cc1cc(C)c(CNC(=O)c2ccc(CCc3ccccc3)cc2)c(=O)[nH]1 [Compound I-48, N-((2-hydroxy-4,6-dimethylpyridin-3-yl)methyl)-4-phenethylbenzamide]	1 to 10 µM	> 80 µM
Cc1cc(C)c(CNC(=O)c2ccc(C(CC(C)C)Oc3ccccc3)cc2)c(=O)[nH]1 (stereo not drawn) [Compound I-49, N-((2-hydroxy-4,6-dimethylpyridin-3-yl)methyl)-4-(3-methyl-1-phenoxybutyl)benzamide]	10 to 50 µM	10 to 50 µM
Cc1cc(C)c(CNC(=O)c2ccc([C@@H](C)Oc3ccccc3)cc2C)c(=O)[nH]1 [Compound I-50]	1 to 10 µM	> 80 µM
Cc1cc(C)c(CNC(=O)c2ccc(C3Cc4ccccc4O3)cc2)c(=O)[nH]1 (stereo not drawn) [Compound I-51, 4-(2,3-dihydrobenzofuran-2-yl)-N-((2-hydroxy-4,6-dimethylpyridin-3-yl)methyl)benzamide]	1 to 10 µM	> 80 µM
Cc1cc(C)c(CNC(=O)c2ccc3c(c2)CCCC3Oc2ccccc2)c(=O)[nH]1 (stereo not drawn) [Compound I-52, N-((2-hydroxy-4,6-dimethylpyridin-3-yl)methyl)-5-phenoxy-5,6,7,8-tetrahydronaphthalene-2-carboxamide]	10 to 50 µM	10 to 50 µM
COC(c1ccccc1)c1ccc(C(=O)NCc2c(C)cc(C)[nH]c2=O)cc1 (stereo not drawn) [Compound I-53, N-((2-hydroxy-4,6-dimethylpyridin-3-yl)methyl)-4-(methoxy(phenyl)methyl)benzamide]	10 to 50 µM	10 to 50 µM
Cc1cc(C)c(CNC(=O)c2ccc(COc3ccccc3)c(C)c2)c(=O)[nH]1 [Compound I-54, N-((2-hydroxy-4,6-dimethylpyridin-3-yl)methyl)-3-methyl-4-(phenoxymethyl)benzamide]	< 1 µM	1 to 10 µM
Cc1cc(C)c(CNC(=O)c2ccc([C@H](C)Oc3ccccc3)cc2C)c(=O)[nH]1 [Compound I-55, (S)—N-((2-hydroxy-4,6-dimethylpyridin-3-yl)methyl)-2-methyl-4-(1-phenoxyethyl)benzamide]	< 1 µM	< 1 µM
Cc1cc(C)c(CNC(=O)c2ccc(C(C)n3ccccc3=O)cc2)c(=O)[nH]1 (stereo not drawn) [Compound I-56, N-((2-hydroxy-4,6-dimethylpyridin-3-yl)methyl)-4-(1-(2-oxopyridin-1(2H)-yl)ethyl)benzamide]	1 to 10 µM	> 80 µM
Cc1nc(C)c(CNC(=O)c2ccc(Oc3ccccc3)cc2)c(=O)[nH]1 [Compound I-59, N-((4-hydroxy-2,6-dimethylpyrimidin-5-yl)methyl)-4-phenoxybenzamide]	1 to 10 µM	1 to 10 µM
Cc1cc(C)c(CNC(=O)c2ccc(C(C)Oc3ccccn3)cc2)c(=O)[nH]1 (stereo not drawn) [Compound I-60, N-((2-hydroxy-4,6-dimethylpyridin-3-yl)methyl)-4-(1-(pyridin-2-yloxy)ethyl)benzamide]	< 1 µM	1 to 10 µM
Cc1cc(C)c(CNC(=O)c2ccc(C(C)Oc3ccccc3)c(F)c2)c(=O)[nH]1 (stereo not drawn) [Compound I-63, 3-fluoro-N-((2-hydroxy-4,6-dimethylpyridin-3-yl)methyl)-4-(1-phenoxyethyl)benzamide]	< 1 µM	< 1 µM
